The source of these data is US20020155422A1, “Methods for analyzing dynamic changes in cellular informatics and uses therefor” (priority 2000, published 2002).

The subject of this assay is HL-60 cells. The assay is described as follows: Gene expression profiling (Resgen microarray filters) of HL-60 cells stimulated to differentiate into neutrophils, time course. Format: cell-based, human. Particulars: for Normalized expression level of gene W95428 / Normalized expression level of gene W96205 / Normalized expression level of gene W96450 / Normalized expression level of gene W96463: HL-60 cells, retinoic acid induced switch, normalized to T = 0 level. The source says: Given the value of understanding the genetic basis of the switch between different hematopoietic stem cell lineages, a well-characterized human pluripotent precursor cell line—the HL 60 promyeloid leukemia cell line—provides a useful model system. HL 60 precursors cells can be induced to switch to granulocytes, monocytes, or macrophages based on alterations in experimental conditions. […] Established molecular methods (e.g., immunocytochemistry, FACS cell sorting, SDS-PAGE, Western blots, Northern blots, or other biochemical or molecular biological techniques) can be used to identify cells that have switched, between different phenotypes. These methods can be used to identify experimental conditions necessary to optimally acquire the baseline data for analysis according to methods of the invention, including information on the dose-response for the transition between different cell states and the time required for a stimulated cell to undergo the transition and reach a new steady state. Additional insight into the molecules involved in cell regulation may be gained by carrying out analysis of cells under various experimental conditions that induce forward and reverse transitions between the same two states by adding or removing a common stimulus as well as by analysis of convergent transition processes that involve switching to a common cell state using different stimuli and divergent transition process that involve switching from one state to two different attractor states using different perturbations. […] The latter would lead to a perturbation of the attractor state to various degrees with subsequent relaxation back to the same attractor along distinct trajectories.
Cell state transitions that may be studied and characterized in the HL60 model system include: A) induction of a transition from HL60 precursor to a granulocyteby treatment with DMSO; B) induction of a reverse transition from granulocyte to HL60 by removing DMSO; C) induction of a transition from HL60 precursor to granulocyte using all-trans-retinoid acid; D) induction of a reverse transition from granulocytes to HL60 precursors by removing all-trans-retinoid acid; E) induction of a transition from HL60 precursors to a monocyte(s) by addition of NaButyrate; and F) induction of a transition from HL60 precursors to a macrophage(s) by addition of TPA. This approach was used to analyze two convergent processes of HL-60 cell transition from precursor to neutrophil states after stimulation with DMSO and retinoic acid (transitions A and C, respectively). In this experiment, only a relatively low number of genes (<300) were analyzed over 7 time points.
HL-60 cells (1.5×10^6 cells/ml) were stimulated in parallel cultures to differentiate into neutrophils along two different but convergent paths by treatment with DMSO (S1 path) or retinoic acid (S2 path). At each time point, RNA was harvested from both cultures using RNeasy extraction kit (Qiagen) and subjected to gene expression profiling using Resgen microarray filters from Research Genetics/Invitrogen (the gene filter contains 5000 human cDNAs that were pre-spotted on a 5×7 cm nylon membrane and then hybridized with radioactively labeled cDNA made from total cellular RNA). […] Expression levels for each gene were normalized to the 0 time point level for that gene (untreated reference). Genes with expression levels below a 4 fold change relative to the 0 reference were excluded from the analysis. In this analysis, an inter-trajectory distance representation was used to compare different trajectories with the cell state space and to identify common paths in cell state transition processes. For each time point, a state vector of length 281 genes was defined for each of the two processes S1(t) and S2(t). […]

Consider `C[S+](C)[O-]` [DMSO], for which the “inter-trajectory distance DT(t) (squared Euclidean distance between state vectors S1(t), S2(t))” value (HL-60 cells 1.5×10^6 cells/ml, DMSO (S1 path) versus retinoic acid (S2 path), 281 genes, 7 time points, FIG. 7) is given as “converge on the same differentiation state”.

Consider `CC1=C(/C=C/C(C)=C/C=C/C(C)=C/C(=O)O)C(C)(C)CCC1` [retinoic acid], for which the “Normalized expression level of gene W95428” value is, setting by setting: (2 hours) 1.049; (Day 2) 1.003; (Day 3) 0.9532; (Day 4) 0.9982; (Day 5) 0.9605; (Day 7) 0.954. Moreover, the “Normalized expression level of gene W96205” value is reported as 0.9014 (2 hours); 0.931 (Day 2); 0.9937 (Day 3); 0.9089 (Day 4); 0.9604 (Day 5); 0.9732 (Day 7). The “Normalized expression level of gene W96450” value came out at 0.8141 (2 hours); 0.8573 (Day 2); 0.6712 (Day 3); 0.8387 (Day 4); 1.17 (Day 5); 1.087 (Day 7). The “Normalized expression level of gene W96463” value is, setting by setting: (2 hours) 0.9136; (Day 2) 0.9058; (Day 3) 0.8109; (Day 4) 0.8458; (Day 5) 0.841; (Day 7) 0.8014.
